Assays:
[1] = test system: HSL; test: IHC staining of HSL in epididymal fat pads; assay type: in vivo, mice; settings: HFD 14 weeks, KMUP-1 2.5 mg/kg/day, Control 34
Experimental: (§1) For IHC of MMP-9/TNFα, HSL/p-HSL/ATGL and eNOS/IL-10, antigen retrieval of de-paraffinated sections was performed in Dako target retrieval solution, pH 9.0, in a vegetable steamer followed by the quenching of endogenous peroxidase activity with 3.0% H2O2 in methanol. Sections were then incubated with specific primary antibodies overnight at 4° C. in a humidified chamber. The antibodies used included rabbit polyclonal anti-eNOS (1:50 dilution) (Abcam, Cambridge, UK) or rabbit monoclonal anti-cleaved caspase-3 (1:50 dilution) (Cell Signaling, U.S.A.). The sections were then examined using a DAKO REAL EnVision™ Detection System kit (DAKO, Carpinteria, Calif., U.S.A.) and counterstained with hematoxylin. Images were obtained through a Nikon Eclipse TE200-S microscope.

[2] = test system: HSL; test: HSL immunoreactivity in HepG2 cells; assay type: cell-based; settings: 24 hours
Experimental: (§2) To determine that KMUP-1 or targeted drugs can affect PKA, we incubated KMUP-1 (10^−4, 10^−5, 10^−6 M) or targeted drugs with HepG2 cells for 24 hours to measure the protein expressions of PKA/PKG by Western blotting or PKA/PKG and HSL immunoreactivities by fluorescence staining, combined with image scanning in the absence or presence of oxidized LDL (200 μg/mL).

[3] = test system: SR-B1; test: HFD-induced hepatic SR-B1 expression; assay type: in vivo; settings: HFD mice; for SR-B1: CTL 100 (Table 8); for SR-B1 expression: Control 100%
Experimental: In the experiment, C57BL/6J male mice (21-22 g), after fasting, were fed an HFD as a model of hyperlipidemia for 8 weeks. During the 2 month experiments, mice fasted for one night before the experiment was changed from a standard diet (STD) to an HFD and then the mice were randomly divided into 13 groups, including a protection group, 2 control and 10 treatment groups. Six mice were used in each group. […] Liver from the protection group supplemented with KMUP-1 HCl (1 mg/kg/day) were used to determine the HMG CoA reductase expression. Each group of mice had free access to drinking water from week 1 to week 14. Tap water was used to normalize mineral nutrition.
For the expression of SR-B1, HMGR, PPARγ and ROCK II, isolated liver tissues were cut into small chips and placed into an extraction buffer (Tris 10 mM, pH 7.0, NaCl 140 mM, PMSF 2 mM, DTT 5 mM, NP-40 0.5%, pepstatin A 0.05 mM and leupeptin 0.2 mM) for hepatic protein extraction, and centrifuged at 20,000×g for 30 minutes. The obtained protein extract was boiled to a ratio of 4:1 with a sample buffer (Tris 100 mM, pH 6.8, glycerol 20%, SDS 4% and bromophenol blue 0.2%). Electrophoresis was performed using 10% SDS-polyacrylamide gel (1 hour, 100 V, 40 mA, 20 μg protein per lane).
Separated proteins, after 3 repeated centrifugations to discard up-layer tissue lipid in purity, were transferred to PVDF membranes treated with 5% fat-free milk powder to block the nonspecific IgGs (90 minutes, 100 V) and incubated for 1 hour with specific protein antibody. The blot was then incubated with anti-mouse or anti-goat IgG linked to alkaline phosphatase (1:1000) for 1 hour.

[4] = test system: ROCK II; test: Expression of ROCK II (Table 12); settings: Control group 100 (%)
[5] = test system: ApoA-I; test: ApoA-I expression in HepG2 cells; assay type: cell-based; settings: 10^−9-10^−5 M
Experimental: The HepG2 hepatoma cell line was purchased from the American Type Culture Collection (ATCC, Manassas, Va., U.S.A.). Cells were cultured in Dulbecco's Modified Eagle's Medium (DMEM). The culture media was supplemented with 5% heat-inactivated FBS, penicillin (100 U/mL) and streptomycin (100 μg/mL). Cells were grown in a humidified atmosphere containing 5% CO2 at 37° C., in which the oxygen tension in the incubator was held at 140 mmHg (20% O2, v/v; normoxic conditions). […] Then the targeted drugs solution was incubated with the cells for 24 hours, followed by protein extraction. The targeted drugs were added to the […].
HepG2 cells were treated with various concentrations of targeted drugs for 24 hours. Reactions were terminated by washing twice with cold PBS, and the cells were then harvested. Proteins in the whole-cell lysate were homogenized in an ice-cold lysis buffer and a protease inhibitor (Sigma-Aldrich, St. Louis, Mo., U.S.A.). The homogenate was centrifuged at 90,000×g for 15 minutes at 4° C., and supernatant was recovered as the total cellular protein. […]

[6] = test system: PKG; test: PKG expression/immunoreactivity in HepG2 cells; assay type: cell-based
Experimental: HepG2 cells were treated with various concentrations of targeted drugs for 24 hours. Reactions were terminated by washing twice with cold PBS, and the cells were then harvested. Proteins in the whole-cell lysate were homogenized in an ice-cold lysis buffer and a protease inhibitor (Sigma-Aldrich, St. Louis, Mo., U.S.A.). The homogenate was centrifuged at 90,000×g for 15 minutes at 4° C., and supernatant was recovered as the total cellular protein. Cytosolic and membrane fractions of HepG2 cells were prepared using a CNM (Cytosol Nuclear Membrane) compartmental protein extraction kit (BioChain Institute Inc., Hayward, Calif., U.S.A.) according to the manufacturer's instructions. All of the fractionated protein solutions were stored at −80° C. until analysis. To measure the expression levels of proteins by drugs, the total cell protein was extracted after incubation with treatments for 24 hours and then Western blotting analysis was performed as described previously.
as §2

[7] = test system: IL-10; test: IHC staining of IL-10 in epididymal fat pads; assay type: in vivo, mice; settings: HFD 14 weeks, KMUP-1 2.5 mg/kg/day, Control 31
Experimental: as §1

[8] = test system: PDE-5A; test: Expression of PDE-5A (Table 12); settings: Control group 100 (%)
[9] = test system: TNF-α; test: IHC staining of TNF-α in epididymal fat pads; assay type: in vivo, mice; settings: HFD 14 weeks, KMUP-1 2.5 mg/kg/day, Control 36
Experimental: as §1

[10] = test system: fatty liver; test: Gross morphology and H&E staining of liver of HFD mice; assay type: in vivo
Experimental: Mice liver and epididymal fat pads were cut and soaked in formalin, dehydrated through graded alcohols and embedded in paraffin. Specimens of liver tissues and epididymal fat pads fixed with formalin (4%) were embedded in paraffin for one hour at 4° C., cut into 4-μm-thick sections, and subjected to H&E staining before examination by light microscope.

[11] = test system: eNOS; test: Expression of eNOS (Table 12); settings: Control group 100 (%)

Cn1c(=O)c2c(ncn2CCN2CCN(c3ccccc3Cl)CC2)n(C)c1=O [KMUP-1, 7-[2-[4-(2-chlorophenyl)piperazinyl]ethyl]-1,3-dimethylxanthine]
Immunorespons percentages, HSL [1]: 57% | HSL immunoreactivity (green fluorescence) [2]: increased | SR-B1 ([3]; Protection group): 29% | SR-B1 expression ([3]; drinking KMUP-1, Protection group): 30% | SR-B1 expression ([3]; drinking KMUP-1, Treatment group): 59% | SR-B1 ([3]; treatment 2.5 mg/200 mL drink): 59% | ROCK II expression [4]: 42.5 ± 6.3% | ApoA-I expression [5]: concentration-dependently increased | PKG immunoreactivity ([6]; HepG2 cells (data not shown)): not significantly affected | expression of PKG ([6]; HepG2 cells, 10, 20, 40 μM, in the presence of LDL (500 μg/mL)): increased | Immunorespons percentages, IL-10 [7]: 56% | PDE-5A expression [8]: 64.5 ± 4.5% | Immunorespons percentages, TNF-α [9]: 22% | Fatty liver (gross morphology) ([10]; drinking 2.5 mg/200 ml water, protective group): markedly decreased | fat globules and Mallory's hyaline bodies (H&E staining of liver) ([10]; oral 2.5 mg/kg, last 6 weeks/14 weeks): reduced | eNOS expression [11]: 155.16 ± 14.8%
